From ChEMBL document CHEMBL1128856, “Paclitaxel and docetaxel photoaffinity labels” (1995)

Assays:
Assay type in all cases: functional
[1] = In vitro cytotoxicity against B16 melanoma cells relative to paclitaxel ED50 = 1
[2] = Ability to induce the formation of microtubules using microtubule assembly assay in vitro relative to paclitaxel ED50 = 1
[3] = In vitro cytotoxicity against P388 cells relative to paclitaxel ED50 = 1

Row | Compound | Ratio [1] | Ratio [2] | Ratio [3]
1 | CC(=O)O[C@H]1C(=O)[C@@]2(C)[C@H]([C@H](OC(=O)c3ccccc3)[C@]3(O)C[C@H](OC(=O)[C@H](O)[C@@H](NC(=O)c4ccc(N=[N+]=[N-])cc4)c4ccccc4)C(C)=C1C3(C)C)[C@]1(OC(C)=O)CO[C@@H]1C[C@@H]2O | 4.6 | 2 | 
2 | CC(=O)O[C@H]1C(=O)[C@@]2(C)[C@H]([C@H](OC(=O)c3cccc(N=[N+]=[N-])c3)[C@]3(O)C[C@H](OC(=O)[C@H](O)[C@@H](NC(=O)OC(C)(C)C)c4ccccc4)C(C)=C1C3(C)C)[C@]1(OC(C)=O)CO[C@@H]1C[C@@H]2O | 0.37 | 1.2 | 
3 | CC(=O)O[C@H]1C(=O)[C@@]2(C)[C@H]([C@H](OC(=O)c3ccccc3)[C@]3(O)C[C@H](OC(=O)[C@H](O)[C@@H](NC(=O)c4cccc(N=[N+]=[N-])c4)c4ccccc4)C(C)=C1C3(C)C)[C@]1(OC(C)=O)CO[C@@H]1C[C@@H]2O | 2.6 | 0.81 | 
4 | CC(=O)O[C@H]1C(=O)[C@@]2(C)[C@H]([C@H](OC(=O)c3ccccc3)[C@]3(O)C[C@H](OC(=O)[C@H](O)[C@@H](NC(=O)c4cc(N=[N+]=[N-])cc([N+](=O)[O-])c4)c4ccccc4)C(C)=C1C3(C)C)[C@]1(OC(C)=O)CO[C@@H]1C[C@@H]2O | 17.4 | 3 | 
5 | CC(=O)O[C@H]1C(=O)[C@@]2(C)[C@H]([C@H](OC(=O)c3cccc(N=[N+]=[N-])c3)[C@]3(O)C[C@H](OC(=O)[C@H](O)[C@@H](NC(=O)c4ccccc4)c4ccccc4)C(C)=C1C3(C)C)[C@]1(OC(C)=O)CO[C@@H]1C[C@@H]2O | 0.65 | 0.4 | 0.08
6 | CC(=O)O[C@H]1C(=O)[C@@]2(C)[C@H]([C@H](OC(=O)c3ccccc3)[C@]3(O)C[C@H](OC(=O)[C@H](O)[C@@H](NC(=O)c4ccccc4)c4ccccc4)C(C)=C1C3(C)C)[C@]1(OC(C)=O)CO[C@@H]1C[C@@H]2O [PACLITAXEL] | 1 | 1 | 
7 | CC(=O)O[C@@]12CO[C@@H]1C[C@H](O)[C@@]1(C)C(=O)[C@H](O)C3=C(C)[C@@H](OC(=O)[C@H](O)[C@@H](NC(=O)OC(C)(C)C)c4ccccc4)C[C@@](O)([C@@H](OC(=O)c4ccccc4)[C@H]21)C3(C)C.O.O.O [DOCETAXEL] | 0.41 | 0.45 | 
